Experimental data reported in the supplement of paper PMC11061612.

Experiments:
Test in all cases: combination Emax (second highest fraction inhibited in the dose matrix, 72 h); higher = more inhibition; extreme values may be limits of the assay
[1] = tested on: NCI-H1876 (Small Cell Lung Carcinoma)
Method in brief: (§1)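 Cell lines grown in DMEM/F12 or RPMI with 10% FBS were plated in 1536-well plates and held 24 hours at 37°C, 5% CO2 before 72 hours of exposure to two-drug dose matrices, with DMSO typically at 0.2%. CellTiter-Glo 2.0 luminescence gave viability, which was converted to inhibition. Vehicle wells were set to 0 and blank wells to 1. Combination Emax is the second-highest inhibition in the matrix, and Bliss excess is the observed combination effect minus the expected EA + EB − EA·EB, where EA and EB are the single-agent effects.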

[2] = tested on: MOLT-13 (T-Lymphoblastic Leukemia)
Method in brief: as §1

ES6 (Ewing's Sarcoma) = tested on: ES6 (Ewing's Sarcoma)
Method in brief: as §1

[3] = tested on: NCI-H1963 (Small Cell Lung Carcinoma)
Method in brief: as §1

[4] = tested on: SK-CO-1 (Colorectal Carcinoma)
Method in brief: as §1

[5] = tested on: OVCAR-3 (Ovarian Carcinoma)
Method in brief: as §1

[6] = tested on: MONO-MAC-6 (Acute Myeloid Leukemia)
Method in brief: as §1

[7] = tested on: MDA-MB-415 (Breast Carcinoma)
Method in brief: as §1

SK-N-SH (Neuroblastoma) = tested on: SK-N-SH (Neuroblastoma)
Method in brief: as §1

NCI-H226 (Mesothelioma) = tested on: NCI-H226 (Mesothelioma)
Method in brief: as §1

[8] = tested on: NCI-H596 (Other Solid Carcinomas)
Method in brief: as §1

[9] = tested on: CPC-N (Small Cell Lung Carcinoma)
Method in brief: as §1

GAK (Melanoma) = tested on: GAK (Melanoma)
Method in brief: as §1

[10] = tested on: PA-TU-8988T (Pancreatic Carcinoma)
Method in brief: as §1

[11] = tested on: SCC-4 (Oral Cavity Carcinoma)
Method in brief: as §1

[12] = tested on: LCLC-103H (Non-Small Cell Lung Carcinoma)
Method in brief: as §1

[13] = tested on: SNU-407 (Colorectal Carcinoma)
Method in brief: as §1

[14] = tested on: IA-LM (Non-Small Cell Lung Carcinoma)
Method in brief: as §1

[15] = tested on: KP-4 (Pancreatic Carcinoma)
Method in brief: as §1

[16] = tested on: BHT-101 (Thyroid Gland Carcinoma)
Method in brief: as §1

Row | SMILES | combination Emax [1] | combination Emax [2] | combination Emax (ES6 (Ewing's Sarcoma)) | combination Emax [3] | combination Emax [4] | combination Emax [5] | combination Emax [6] | combination Emax [7] | combination Emax (SK-N-SH (Neuroblastoma)) | combination Emax (NCI-H226 (Mesothelioma)) | combination Emax [8] | combination Emax [9] | combination Emax (GAK (Melanoma)) | combination Emax [10] | combination Emax [11] | combination Emax [12] | combination Emax [13] | combination Emax [14] | combination Emax [15] | combination Emax [16]
1 | COc1cccc2c1C(=O)c1c(O)c3c(c(O)c1C2=O)C[C@@](O)(C(=O)CO)C[C@@H]3O[C@H]1C[C@H](N)[C@H](O)[C@H](C)O1 [Doxorubicin] + Cc1cc2ncnn2cc1Nc1ncc2c(n1)n(C1CCOCC1)c(=O)n2C [AZD7648] (first compound max 1 µM, 7x7, partner max 10 µM) | 0.978 | 0.986 | 0.573 | 0.799 | 0.77 | 0.426 | 0.999 | 0.568 | 0.974 | 0.802 | 0.295 | 0.911 | 0.803 | 0.791 | 0.303 | 0.85 | 0.406 | 0.463 | 0.76 | 0.563
2 | COc1cc2ncnc(Nc3ccc(F)c(Cl)c3)c2cc1OCCCN1CCOCC1 [Gefitinib] + CC(C)n1c(=O)n(C)c2cnc3cc(F)c(-c4ccc(OCCCN5CCCCC5)nc4)cc3c21 [AZD1390] (first compound max 10 µM, 7x7, partner max 0.3 µM) | 0.178 | 0.311 | 0.194 | 0.062 | 0.241 | 0.0817 | 0.42 | 0.191 | 0.0891 | 0.0952 | 0.269 | 0.0984 | 0.226 | 0.15 | 0.275 | 0.195 | 0.168 | 0.202 | 0.121 | 0.255
3 | CS(=O)(=O)CCNCc1ccc(-c2ccc3ncnc(Nc4ccc(OCc5cccc(F)c5)c(Cl)c4)c3c2)o1 [Lapatinib] + C[C@@H](Oc1cc(-c2cnn(C3CCNCC3)c2)cnc1N)c1c(Cl)ccc(F)c1Cl [Crizotinib] (first compound max 10 µM, 7x7, partner max 10 µM) | 0.934 | 0.853 | 0.953 | 0.966 | 0.94 | 0.548 | 0.951 | 0.633 | 0.899 | 0.44 | 0.902 | 0.845 | 0.75 | 0.64 | 0.913 | 0.624 | 0.966 | 0.489 | 0.761 | 0.98
4 | CC(=O)c1c(C)c2cnc(Nc3ccc(N4CCNCC4)cn3)nc2n(C2CCCC2)c1=O [Palbociclib] + CC1(C)CCC(CN2CCN(c3ccc(C(=O)NS(=O)(=O)c4ccc(NCC5CCOCC5)c([N+](=O)[O-])c4)c(Oc4cnc5[nH]ccc5c4)c3)CC2)=C(c2ccc(Cl)cc2)C1 [Venetoclax] (first compound max 10 µM, 7x7, partner max 1 µM) | 0.224 | 0.709 | 0.232 | 0.922 | 0.43 | 0.0774 | 0.823 | 0.155 | 0.465 | 0.176 | 0.134 | 0.106 | 0.205 | 0.141 | 0.0364 | 0.251 | 0.398 | 0.0755 | 0.383 | 0.431
5 | CC(=O)c1c(C)c2cnc(Nc3ccc(N4CCNCC4)cn3)nc2n(C2CCCC2)c1=O [Palbociclib] + Cc1c2c(nn1C)CSCc1cc(n(C)n1)CSc1cc(c3ccccc3c1)OCCCc1c(C(=O)O)n(C)c3c-2c(Cl)ccc13 [AZD5991] (first compound max 10 µM, 7x7, partner max 1 µM) | 0.534 | 1 | 0.412 | 0.534 | 0.455 | 0.167 | 1 | 0.444 | 0.575 | 0.204 | 0.349 | 0.264 | 0.369 | 0.229 | 0.202 | 0.329 | 0.621 | 0.306 | 0.412 | 0.675
6 | CC(=O)c1c(C)c2cnc(Nc3ccc(N4CCNCC4)cn3)nc2n(C2CCCC2)c1=O [Palbociclib] + Cn1cnc2c(F)c(Nc3ccc(Br)cc3Cl)c(C(=O)NOCCO)cc21 [Selumetinib] (first compound max 10 µM, 7x7, partner max 10 µM) | 0.312 | 0.721 | 0.349 | 0.456 | 0.858 | 0.185 | 0.669 | 0.254 | 0.371 | 0.232 | 0.306 | 0.14 | 0.697 | 0.514 | 0.377 | 0.248 | 0.654 | 0.281 | 0.509 | 0.813
7 | COc1cccc(OCCCN)c1-c1cc(Nc2cnc(C#N)cn2)n[nH]1 [Prexasertib] + C=CCn1c(=O)c2cnc(Nc3ccc(N4CCN(C)CC4)cc3)nc2n1-c1cccc(C(C)(C)O)n1 [AZD1775] (first compound max 1 µM, partner max 1 µM) | 1 | 1 | 0.603 | 1 | 0.775 | 0.885 | 1 | 0.584 | 0.939 | 0.393 | 0.65 | 1 | 0.783 | 0.898 | 0.665 | 0.854 | 0.784 | 0.64 | 0.8 | 0.881
